In patent US20090030039A1, “Piperidine Derivatives as Cxcr3 Receptor Antagonists” (priority 2006, published 2009):

Columns and labels:
[1] = target: T1, human CXCR3 (Homo sapiens, UniProt P49682); assay: [35S]GTPγS exchange assay, CXCR3 receptor inhibition (hI-TAC-induced GTPγS-binding); format: biochemical; details: -log IC50 (molar) inhibiting 50% of specific I-TAC-induced GTPγS-binding, membranes of human CXCR3-transfected CHO cells; for IC50: read-out: pIC50 (converted)
T1 construct: expressed in transfected cells; host or cells: CHO cells (membrane preparation)
T1 sequence (P49682 1-368): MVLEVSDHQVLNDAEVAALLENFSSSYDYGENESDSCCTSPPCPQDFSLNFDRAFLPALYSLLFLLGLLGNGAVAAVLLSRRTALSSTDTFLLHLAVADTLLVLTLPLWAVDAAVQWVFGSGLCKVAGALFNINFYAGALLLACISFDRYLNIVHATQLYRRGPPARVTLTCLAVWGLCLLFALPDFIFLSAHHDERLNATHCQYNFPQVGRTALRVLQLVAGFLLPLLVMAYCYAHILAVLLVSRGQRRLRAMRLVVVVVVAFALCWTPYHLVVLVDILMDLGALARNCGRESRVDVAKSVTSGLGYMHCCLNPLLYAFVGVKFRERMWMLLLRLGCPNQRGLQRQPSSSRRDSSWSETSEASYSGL

Structure (SMILES) | pIC50 [1] | melting point | IC50 [1]
O=C1CCC(c2ccccc2)(C2CCN(Cc3ccc(Cl)c(F)c3)CC2)C(=O)N1 (single isomer, unassigned) [Compound 41] | 6.4 | 192.3 to 196.3 °C | 
Cl.O=C1CCC(c2ccc(F)cc2F)(C2CCN(Cc3ccc(Br)cc3)CC2)C(=O)N1 (single isomer, unassigned) [Compound 195] |  | 273.9 to 278.3 °C | 316 nM
Cl.O=C1CCC(c2ccc(F)cc2F)(C2CCN(Cc3ccc(Cl)c(F)c3)CC2)C(=O)N1 (single isomer, unassigned) [Compound 203] |  | 282 to 285.9 °C | 79.4 nM
Cl.O=C1CCC(c2ccc(F)cc2F)(C2CCN(Cc3ccc(Cl)c(F)c3)CC2)C(=O)N1 (single isomer, unassigned) [Compound 204] |  | 282 to 283.8 °C | 251 nM
CN1C(=O)CCC(c2ccccc2)(C2CCN(Cc3ccc(Br)cc3)CC2)C1=O (stereo not shown) [Compound 125] | 5.6 | 298.1 to 303.1 °C | 
